The values that follow come from US7598223B2, “Methods for producing target cell reactive lymphocytes” (The Board of Trustees of the Leland Stanford Junior …, priority 2004, dated 2009).

The subject of assay [1] is T2 cells. Description: Determination of recognition efficiency (RE): 51Cr-release lysis of peptide-pulsed T2 targets by CTL clones. Conditions: for RE score (negative log10 of the peptide concentration required for 40% specific lysis): peptide-pulsed T2 cells, E:T ratio 10:1; for Mean RE (weighted): target cells pulsed with native peptide. The assay is classed as cell-based, human. The method, then:
FIGS. 3A-3J. […] All assays were performed in triplicate and each clone was assayed twice. Error bars reflect variation between two separate assays. 3a.-c. CTL clones 476.105 and 132.1 were assayed for lysis of T2 cells pulsed with 10-fold dilutions of a. native or c. heteroclitc peptide at concentrations ranging from 100 fg/ml to 100 ng/ml. b. CTL clones 476.105 and 132.1 were assayed for lysis of Malme-3M melanoma cells. d.-e. […] Endogenous (461 and 132) and vaccine-induced (517, 520, 422 and 476) CTL clones were compared for RE in lysing target cells. f-g. […] Mean RE (weighted) for each response is indicated with horizontal bars. Weighted means were based on all clones, not only those assayed, and were estimated by summing the RE of each analyzed clone multiplied by the number of total clones expressing the same V-beta in each patient.
2. […] The E:T ratio was based upon live T and target cells. For each T cell clone, % cytotoxicity was plotted against peptide concentration. The peptide concentration at which the curve crosses 40% cytotoxicity was defined as the RE of that clone (Marguiles, Nat. Immunol. (2001) 2:669-670.
Similar RE assays were performed for the remaining clones from each patient selected for analysis. In order to compare REs of various CTL lines, each clone was assigned an RE score expressed as the negative log10 value of the peptide concentration required for 40% percent specific lysis at an E:T ratio of 10:1. […] We estimated the composite RE of the overall TAA-specific response (composed of a heterogeneous population of T cells) in vivo by summing the RE of each clone multiplied by its representation in the original mixture (the representation was estimated based on the proportion of TAA-specific cells expressing the same V-beta as the clone).

Assay [2] has as its system T2 cells. Nature of the assay: Micro-cytotoxicity 51Cr-release assay with tetramer+/CD8+ cells sorted from PBMC of patient 422. Conditions: patient 422 G209-2M tetramer+ cells; peptide 1 μg/ml; 4 hours. The assay is classed as cell-based, human.
From the text: Six patients with T cell responses specific for MART-1 or gp100 were selected for analysis. PBMC from each patient were stained with PE-conjugated peptide-MHC tetramers: G209-2M-tet PE or M26-tet PE, and co-stained with anti-CD8 FITC and anti-CD14, -CD19, and -CD4 Cy5PE. The plots shown are gated for CD14-, CD19-, and CD4-cells. Tetramer+/CD8+ cells are boxed. […] Micro-cytotoxicity ^51Cr-release assay with tetramer+/CD8+ cells isolated by FACS from the PBMC from patient 422. Isolated cells were assayed for lysis of T2 cells treated with relevant (G209-2M, G209n) or irrelevant (CMV) peptide, or mel 526 melanoma cells. Sorted cells were combined with 250 target cells at 13:1 E:T ratios for 4 hours and supernatants were assayed for percent specific release of radio-label.
Microcytotoxic assay: Cells were isolated directly from PBMC from patient 422 by FACS as described above. Cells were collected in microfuge tubes containing 1 ml ice cold 90% IMDM, with 10% FBS. Collected cells were washed and resuspended to 83,300 cells/ml in 90% IMDM, with 10% FBS. Targets were prepared as described above and resuspended to 8,300 cells/ml in 90% IMDM, with 10% FBS. […] Percent specific release of ^51Cr was calculated from 40 μl cell-free supernatant.
In assay [3] the target is tetramer+ CD8+ T cells of patient 461 (their T cell receptors). Nature of the assay: flow cytometry, tetramer staining of patient PBMC.
The target in assay [4] is tetramer+ CD8+ T cells of patient 517 (their T cell receptors). Description: flow cytometry, tetramer staining of patient PBMC. In general terms: A flow cytometer gives signals particle by particle.
Assay [5] has as its target tetramer+ CD8+ T cells of patient 132 (their T cell receptors). Nature of the assay: flow cytometry, tetramer staining of patient PBMC.
For assay [6], the target named is tetramer+ CD8+ T cells of patient 422 (their T cell receptors). Nature of the assay: flow cytometry, tetramer staining of patient PBMC.
For assay [7], the target named is tetramer+ CD8+ T cells of patient 476 (their T cell receptors). Nature of the assay: flow cytometry, tetramer staining of patient PBMC.

Turning to “IMDQVPSFV (SEQ ID NO:4) [G209-2M, heteroclitic peptide vaccine gp100 209-217 (210M), reference compound]”, the “RE score (negative log10 of the peptide concentration required for 40% specific lysis)” value in the assay with T2 cells [1] (CTL clone 132.1) and in the assay with T2 cells [1] (CTL clone 476.105) was 11.2 each time. In addition, in the assay with T2 cells [2], the “Lysis of peptide-pulsed T2 cells by directly isolated tetramer+ T cells” value is recorded as “specifically lysed”.

ITAQVPSFV (SEQ ID NO:2) [G209-3A]: in the assay with T2 cells [1] (any concentrations, data not shown), the “Activation of G209-specific target cell lysis by T cell clones” value is reported as “does not activate”.

As for “HLA-A*0201/M26 peptide tetramer-phycoerythrin (from UniProt P61769 21-119) (peptide-MHC)”, the estimated percentage of total CD8+ cells that are also tetramer+/CD8+ in assay [3] is 0.5%; in assay [4], 0.23%.

With “ITDQVPSFV (SEQ ID NO:1) (syArtificial Sequence) [G209n, native G209n peptide; agonist]”, the results for the “RE score (negative log10 of the peptide concentration required for 40% specific lysis)” value with T2 cells [1] (CTL clone 132.1) and with T2 cells [1] (CTL clone 476.105) were 11.1 and 8.3, respectively. The figures for the “Mean RE (weighted)” value in the assay on T2 cells [1] (CTL clones of patient 132 (endogenous)), in the assay with T2 cells [1] (CTL clones of patient 422 (vaccine-induced)) and in the assay on T2 cells [1] (CTL clones of patient 476 (vaccine-induced)) were 11.2, 9.7 and 9.9, respectively. The “Lysis of peptide-pulsed T2 cells by directly isolated tetramer+ T cells” value with T2 cells [2] is recorded as “specifically lysed”.

For “HLA-A*0201/G209-2M peptide tetramer-phycoerythrin (from UniProt P61769 21-119) (peptide-MHC)”, the results for the estimated percentage of total CD8+ cells that are also tetramer+/CD8+ in assay [5], in assay [6] and in assay [7] were 0.22%, 2.5% and 0.31%, respectively.
